Assay results as given in patent US20240317826A1, “COMPOSITIONS AND METHODS FOR TREATING AND/OR I[…] AGENT FOR TREATING HIV-1 INFECTIONS” (priority 2021, published 2024).
“Also recorded” adds a separate entry of the source. Where two headings read alike, the source gives them in different places.

Columns and labels:
IN-INI1 interaction = molecular target: T1, IN-INI1 interaction (Human immunodeficiency virus type 1 group M subtype B, UniProt P04585); experiment: Alpha interaction assay: effect of stapled peptides on IN-INI1 interaction; assay type: binding, HIV-1; conditions: in vitro
T1 construct: made in house; host or cells: bacteria (E. coli inferred from the pGEX vector)
Experimental: (§1) FIG. 8A-FIG. 8D show quantitative alpha interaction assay to determine the effect of stapled peptides on the interaction of IN and IN-CTD with INI1 and INI1183-304 or TAR RNA. […] Fixed concentrations of GST-IN, 6His-INI1, and TAR RNA were incubated with increasing concentration of stapled peptides and the interaction was detected as Alpha Score. The IC50 values were determined by fitting the data to a four-parameter dose-response curve using Graph Pad prism. All the graphs represent the average of three independent experiments (Mean+/−SEM).
(§2) AlphaScreen proximity assay to detect the protein-protein and protein-RNA interactions. AlphaScreen assay was carried out using PerkinElmer Alpha-Lisa-6His Acceptor beads (Catalogue #AL128C), Alpha-Screen-GST donor beads (Catalogue #6765300), GST-tagged and His-tagged proteins for protein-protein interactions; and Alpha-Screen Streptavidin donor beads (Catalogue #6760002 S), Alpha-Lisa-GST acceptor beads (Catalogue #AL110C), Biotin-labeled RNA and GST-tagged proteins for protein-RNA interactions. The reaction was carried out according to the manufacturer's protocol in a reaction buffer contacting (25 mM HEPES pH 7.4, 100 mM NaCl (or 500 mM NaCl), 1 mM DTT, 1 mM MgCl2 and BSA 1 mg ml/ml). The mixture of proteins or protein and RNA were incubated for 1 hr at room temperate with shaking in a multi micro-plate shaker and then 20 ag ml/ml accepter beads were added and incubated for additional 1 h with shaking. Finally, 20 ag ml^−1 of donor beads were added and further incubated for 1 hr. The Alpha score readings were measured using Alpha-compatible Envision 2105 multi-plate reader (Perkin-Elmer). All the experiments related to this method were carried out 3 to 5 times and data were analyzed by using Graph Pad Prism 9 version 9.0.0 (GraphPad Software, CA). The RNA sequences used in this assay are listed in the Table 6d and were obtained from Integrated DNA technology.
(§3) These peptides were tested for their ability to disrupt the interaction between IN-INI1 and IN-TAR RNA in vitro.

IN-TAR RNA interaction = molecular target: T2, IN-TAR RNA interaction (Human immunodeficiency virus type 1 group M subtype B, UniProt P04585); experiment: Alpha interaction assay: effect of stapled peptides on IN-TAR RNA interaction; assay type: binding, HIV-1; conditions: in vitro
T2 construct: made in house; host or cells: bacteria (E. coli inferred from the pGEX vector)
Experimental: as §1, §2, §3

IN/TAR RNA complex = molecular target: T3, IN/TAR RNA complex (Human immunodeficiency virus type 1 group M subtype B, UniProt P04585); experiment: RNA-co-IP in 293T cells: TAR RNA bound to YFP-IN; assay type: cell-based, HIV-1
T3 construct: expressed in transfected cells; host or cells: 293T cells
Description: (§4) Panels d-g show the input RNA and protein levels within transfected cells: the RT-PCR analysis of input TAR RNA levels (panel d); Immunoblot analysis of input HA-INI1 (panel e); input YFP-IN (panel f); and GAPDH level for loading control (panel g). Lane 1 is RNA-co-IP using isotype IgG control antibodies and lanes 2-7 are RNA-co-IP using anti-GFP antibodies to pull down IN. There is ˜1000 fold inhibition of RNA and INI1 binding to IN in the presence of SP-38 peptide (compare lane 6 to lane 5).
For RNA-co-IP, […] were transfected with pCMV-Tat and pLTR-luc plasmids along with pYFP-IN and pCGN-INI1. Immunopreciptation was carried out as above using α-GFP (Cell Signal, Catalogue #2555; Lot #8; 5 ag/sample) antibodies. The immunecomplexes were then split into two and RNA was isolated from one half using Trizol reagent (Invitrogen Catalogue #15596026) and subjected to qRT-PCR using Early RT primers. The other half was subjected to immunoblot analysis.
(§5) To determine if stapled peptides can inhibit interaction of IN with TAR RNA in cells, we carried out RNA-co-IP experiments (FIG. 8e). YFP-IN and TAR RNA were expressed by co-transfecting plasmids pYFP-fN, pLTIR-luc and pTat in 293T cells. Cells were treated with SP-38 or SP-83 (D225G mutant) peptides. After transfection, the cell lysates were treated with DNaseI and subjected to immunoprecipitation (IP) using α-GFP antibodies to pull down YFP-IN and associated complexes. RNA was separated from the immune complexes and subjected to RT-PCR to detect bound TAR RNA (FIG. 8e, panel a). Immunoblot analysis of bound proteins were carried out using: α-HA to detect bound HA-INI1 (FIG. 8e, panel b) and α-GFP to detect YFP-IN (FIG. 8e, panel c). RT-PCR of the RNA isolated from cell lysate was used as input control (FIG. 8e, panel d). Immunoblot analysis of total proteins from cell lysates as input control were carried out using α-HA to detect input HA-INI1 (FIG. 8e, panel e), α-GFP to detect input YFP-IN (FIG. 8e, panel f), and α-GAPDH to detect GAPDH as loading control (FIG. 8e, panel g). […] Expression of both GFP-IN and TAR RNA in the cells led to successful RNA-co-IP by α-GFP antibodies (FIG. 8e, lane 5).

IN/INI1 complex = molecular target: T4, IN/INI1 complex (Human immunodeficiency virus type 1 group M subtype B, UniProt P04585); experiment: co-IP in 293T cells: HA-INI1 bound to YFP-IN; assay type: cell-based, HIV-1
T4 construct: expressed in transfected cells; host or cells: 293T cells
Description: as §4, §5

HIV-1NL4-3 = experiment: Multiday HIV-1 replication assay in CEM-GFP cells; assay type: cell-based; conditions: CEM-GFP cells infected with HIV-1NL4-3; 1 and 5 micromolar peptide; GFP expression and p24 in culture supernatants
Description: FIG. 9A-FIG. 9C show an inhibition of HIV-1 replication by Stapled peptides in a multiday replication assay in CEM-GFP cells. […] FIG. 9B and FIG. 9C show images representing the expression of GFP in CEM GFP cells in presence or absence of 1 and 5 micromolar Stapled peptides or DMSO control. FIG. 9D and FIG. 9E show p24 ELISA analysis of culture supernatants from CEM-GFP cells from panels FIG. 9B and FIG. 9C samples. The CEM-GFP cells were infected with HIV-1NL4-3 and treated with stapled peptides. Culture supernatants were collected on multiple days as indicated and p24 analysis was carried out.
To determine if the stapled peptides can inhibit HIV-1 replication in cell culture, we used CEM-GFP cell lines, which harbor LTR-GFP as a reporter. HIV-1 infection of these cells activates GFP expression.

Substance | IC50, inhibition of IN-INI1 interactions (IN-INI1 interaction) | IC50, inhibition of IN-TAR RNA interactions (IN-TAR RNA interaction) | inhibition of IN/RNA complex formation within cells (IN/TAR RNA complex) | inhibition of IN/INI1 complex formation within cells (IN/INI1 complex) | inhibition of INI1 binding to IN (IN/INI1 complex; immunoblot of bound HA-INI1) | inhibition of HIV-1 propagation/replication (HIV-1NL4-3) | inhibition of IN-INI1 interactions (IN-INI1 interaction) | inhibition of IN-TAR RNA interactions (IN-TAR RNA interaction) | inhibition of RNA binding to IN in RNA-co-IP (IN/TAR RNA complex; RT-PCR of bound TAR RNA) | inhibition of IN/RNA complex formation within cells (IN/TAR RNA complex; listed as SP83 (D225G)) | inhibition of IN/INI1 complex formation within cells (IN/INI1 complex; listed as SP83 (D225G))
lys-Leu-Met-Thr-Pro-Glu-Met-Phe-S5-Glu-Ile-Leu-S5-Cys-Asp-Leu-Asn [SP38] | low nanomolar | low nanomolar | potently inhibits | potently inhibits | ~1000 fold | Inhibits HIV-1 Replication at Low Micromolar Concentrations; also recorded: potently inhibited |  |  |  |  | 
lys-Leu-Met-Thr-Pro-Glu-Met-Phe-S5-Glu-Ile-Leu-S5-Cys-Gly-Leu-Asn [SP83] |  |  | not | not |  | not | not | not | not | does not inhibit | does not inhibit
